According to ChEMBL document CHEMBL4715844, “Structure-based virtual screening and biological evaluation of novel non-bisphosphonate farnesyl pyrophosphate synthase inhibitors” (Eur J Med Chem, 2020):
Activity calls are given as the source filed them. No cut-off for these calls is given here.

Tests used:
[1] = target: T1, Farnesyl pyrophosphate synthase (Rattus norvegicus) (UniProt P05369); test: Inhibition of rat FPPS expressed in Escherichia coli BL21 (DE3) using GPP and IPP as substrate at 10 uM incubated for 10 mins by microplate reader
T1 sequence (whole entry): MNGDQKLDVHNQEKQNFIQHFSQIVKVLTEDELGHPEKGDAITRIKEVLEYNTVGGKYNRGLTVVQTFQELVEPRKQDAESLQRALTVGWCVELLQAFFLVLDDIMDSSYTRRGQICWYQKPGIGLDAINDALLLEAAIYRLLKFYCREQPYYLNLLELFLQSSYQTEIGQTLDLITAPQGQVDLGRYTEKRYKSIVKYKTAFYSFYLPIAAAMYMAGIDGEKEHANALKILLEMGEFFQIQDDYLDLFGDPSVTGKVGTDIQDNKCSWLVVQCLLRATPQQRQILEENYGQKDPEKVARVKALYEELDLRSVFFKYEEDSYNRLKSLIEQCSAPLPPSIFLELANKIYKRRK

[2] = target: T2, Farnesyl pyrophosphate synthase (Rattus norvegicus, UniProt P05369); test: Binding affinity to rat FPPS expressed in Escherichia coli BL21 (DE3) by isothermal titration calorimetry
T2 sequence (P05369 whole entry): T1 sequence (whole entry)

LoVo [3] = test: Growth inhibition of human LoVo cells at 100 uM incubated for 48 hrs by MTT assay relative to control; format: functional; details: read-out: GI
HCT-116 [4] = test: Growth inhibition of human HCT116 cells at 100 uM incubated for 48 hrs by MTT assay relative to control; format: functional; details: read-out: GI
LoVo [5] = test: Cytotoxicity against FPPS-positive human Lovo cells assessed as reduction in cell viability measured after 48 hrs by MTT assay
HCT-116 [6] = test: Cytotoxicity against FPPS-positive human HCT116 cells assessed as reduction in cell viability measured after 48 hrs by MTT assay; details: HCT-116, 48 h
MDA-MB-231 = test: Cytotoxicity against FPPS-negative human MDA-MB-231 cells assessed as reduction in cell viability measured after 48 hrs by MTT assay; format: functional, cell-based; details: MDA-MB-231, 48 h
LoVo [7] = test: Cytotoxicity against FPPS-positive human Lovo cells assessed as cell viability at 100 uM in presence of FOH measured after 48 hrs by MTT assay; format: functional; details: read-out: Activity
LoVo [8] = test: Cytotoxicity against FPPS-positive human Lovo cells assessed as cell viability at 100 uM in presence of GGOH measured after 48 hrs by MTT assay; format: functional; details: read-out: Activity
HCT-116 [9] = test: Cytotoxicity against FPPS-positive human HCT116 cells assessed as cell viability at 100 uM in presence of FOH measured after 48 hrs by MTT assay; format: functional; details: read-out: Activity
HCT-116 [10] = test: Cytotoxicity against FPPS-positive human HCT116 cells assessed as cell viability at 100 uM in presence of GGOH measured after 48 hrs by MTT assay; format: functional; details: read-out: Activity
LoVo [11] = test: Reduction in Ras protein expression in FPPS-positive human LoVo cells upto 75 uM measured after 48 hrs by Western blot analysis; format: functional; details: dose microM <=75, time 48.0 hrs
HCT-116 [12] = test: Reduction in Ras protein expression in FPPS-positive human HCT116 cells upto 75 uM measured after 48 hrs by Western blot analysis; format: functional, cell-based; details: dose microM <=75, time 48.0 hrs
LoVo [13] = test: Induction of ROS generation in human Lovo cells assessed as intracellular ROS level at 75 uM by DCFH-DA staining-based flow cytometric analysis (reference value: 9.18%); format: functional
HCT-116 [14] = test: Induction of ROS generation in human HCT116 cells assessed as intracellular ROS level at 75 uM by DCFH-DA staining-based flow cytometric analysis (reference value: 8.91%); format: functional
LoVo [15] = test: Induction of apoptosis in human Lovo cells assessed as viable cells at 25 uM after 48 hrs by Annexin V/FITC staining based flow cytometric analysis (reference value: 91.1%); format: functional; details: read-out: Activity
LoVo [16] = test: Induction of apoptosis in human Lovo cells assessed as early apoptotic cells at 25 uM after 48 hrs by Annexin V/FITC staining based flow cytometric analysis (reference value: 6.76%); format: functional
LoVo [17] = test: Induction of apoptosis in human Lovo cells assessed as late apoptotic cells at 25 uM after 48 hrs by Annexin V/FITC staining based flow cytometric analysis (reference value: 1.84%); format: functional
LoVo [18] = test: Induction of apoptosis in human Lovo cells assessed as necrotic cells at 25 uM after 48 hrs by Annexin V/FITC staining based flow cytometric analysis (reference value: 0.321%); format: functional
LoVo [19] = test: Induction of apoptosis in human Lovo cells assessed as viable cells at 50 uM after 48 hrs by Annexin V/FITC staining based flow cytometric analysis (reference value: 91.1%); format: functional; details: read-out: Activity
LoVo [20] = test: Induction of apoptosis in human Lovo cells assessed as early apoptotic cells at 50 uM after 48 hrs by Annexin V/FITC staining based flow cytometric analysis (reference value: 6.76%); format: functional
LoVo [21] = test: Induction of apoptosis in human Lovo cells assessed as late apoptotic cells at 50 uM after 48 hrs by Annexin V/FITC staining based flow cytometric analysis (reference value: 1.84%); format: functional
LoVo [22] = test: Induction of apoptosis in human Lovo cells assessed as necrotic cells at 50 uM after 48 hrs by Annexin V/FITC staining based flow cytometric analysis (reference value: 0.321%); format: functional
LoVo [23] = test: Induction of apoptosis in human Lovo cells assessed as viable cells at 75 uM after 48 hrs by Annexin V/FITC staining based flow cytometric analysis (reference value: 91.1%); format: functional; details: read-out: Activity
LoVo [24] = test: Induction of apoptosis in human Lovo cells assessed as early apoptotic cells at 75 uM after 48 hrs by Annexin V/FITC staining based flow cytometric analysis (reference value: 6.76%); format: functional
LoVo [25] = test: Induction of apoptosis in human Lovo cells assessed as late apoptotic cells at 75 uM after 48 hrs by Annexin V/FITC staining based flow cytometric analysis (reference value: 1.84%); format: functional
LoVo [26] = test: Induction of apoptosis in human Lovo cells assessed as necrotic cells at 75 uM after 48 hrs by Annexin V/FITC staining based flow cytometric analysis (reference value: 0.321%); format: functional
[27] = Reduction in Ras protein expression in FPPS-positive human HCT116 cells assessed as mean fluorescence intensity upto 75 uM measured after 48 hrs by Western blot analysis relative to untreated control; format: functional, HCT-116; details: dose microM <=75
[28] = Reduction in Ras protein expression in FPPS-positive human LoVo cells assessed as mean fluorescence intensity upto 75 uM measured after 48 hrs by Western blot analysis relative to untreated control; format: functional; details: dose microM <=75
HCT-116 [29] = test: Induction of apoptosis in human HCT116 cells assessed as viable cells at 25 uM after 48 hrs by Annexin V/FITC staining based flow cytometric analysis (reference value: 92%); format: functional; details: read-out: Activity
HCT-116 [30] = test: Induction of apoptosis in human HCT116 cells assessed as early apoptotic cells at 25 uM after 48 hrs by Annexin V/FITC staining based flow cytometric analysis (reference value: 1.26%); format: functional
HCT-116 [31] = test: Induction of apoptosis in human HCT116 cells assessed as late apoptotic cells at 25 uM after 48 hrs by Annexin V/FITC staining based flow cytometric analysis (reference value: 5.63%); format: functional
HCT-116 [32] = test: Induction of apoptosis in human HCT116 cells assessed as necrotic cells at 25 uM after 48 hrs by Annexin V/FITC staining based flow cytometric analysis (reference value: 1.12%); format: functional
HCT-116 [33] = test: Induction of apoptosis in human HCT116 cells assessed as viable cells at 50 uM after 48 hrs by Annexin V/FITC staining based flow cytometric analysis (reference value: 92%); format: functional; details: read-out: Activity
HCT-116 [34] = test: Induction of apoptosis in human HCT116 cells assessed as early apoptotic cells at 50 uM after 48 hrs by Annexin V/FITC staining based flow cytometric analysis (reference value: 1.26%); format: functional
HCT-116 [35] = test: Induction of apoptosis in human HCT116 cells assessed as late apoptotic cells at 50 uM after 48 hrs by Annexin V/FITC staining based flow cytometric analysis (reference value: 5.63%); format: functional
HCT-116 [36] = test: Induction of apoptosis in human HCT116 cells assessed as necrotic cells at 50 uM after 48 hrs by Annexin V/FITC staining based flow cytometric analysis (reference value: 1.12%); format: functional
HCT-116 [37] = test: Induction of apoptosis in human HCT116 cells assessed as viable cells at 75 uM after 48 hrs by Annexin V/FITC staining based flow cytometric analysis (reference value: 92%); format: functional; details: read-out: Activity
HCT-116 [38] = test: Induction of apoptosis in human HCT116 cells assessed as early apoptotic cells at 75 uM after 48 hrs by Annexin V/FITC staining based flow cytometric analysis (reference value: 1.26%); format: functional
HCT-116 [39] = test: Induction of apoptosis in human HCT116 cells assessed as late apoptotic cells at 75 uM after 48 hrs by Annexin V/FITC staining based flow cytometric analysis (reference value: 5.63%); format: functional
HCT-116 [40] = test: Induction of apoptosis in human HCT116 cells assessed as necrotic cells at 75 uM after 48 hrs by Annexin V/FITC staining based flow cytometric analysis (reference value: 1.12%); format: functional
LoVo [41] = test: Induction of ROS generation in human Lovo cells assessed as intracellular ROS level at 25 uM by DCFH-DA staining-based flow cytometric analysis (reference value: 9.18%); format: functional
LoVo [42] = test: Induction of ROS generation in human Lovo cells assessed as intracellular ROS level at […] 50 by DCFH-DA staining-based flow cytometric analysis (reference value: 9.18%); format: functional; details: dose 50 µM
HCT-116 [43] = test: Induction of ROS generation in human HCT116 cells assessed as intracellular ROS level at 25 uM by DCFH-DA staining-based flow cytometric analysis (reference value: 8.91%); format: functional
HCT-116 [44] = test: Induction of ROS generation in human HCT116 cells assessed as intracellular ROS level at 50 uM by DCFH-DA staining-based flow cytometric analysis (reference value: 8.91%); format: functional
LoVo [45] = test: Cytotoxicity against FPPS-positive human Lovo cells assessed as cell viability in presence of FOH measured after 48 hrs by MTT assay; format: functional, cell-based
LoVo [46] = test: Cytotoxicity against FPPS-positive human Lovo cells assessed as cell viability in presence of GGOH measured after 48 hrs by MTT assay; format: functional, cell-based
HCT-116 [47] = test: Cytotoxicity against FPPS-positive human HCT116 cells assessed as cell viability in presence of FOH measured after 48 hrs by MTT assay; format: functional, cell-based; details: HCT-116, 48 h
HCT-116 [48] = test: Cytotoxicity against FPPS-positive human HCT116 cells assessed as cell viability in presence of GGOH measured after 48 hrs by MTT assay; format: functional, cell-based; details: HCT-116, 48 h
MDA-MB-468 = test: Growth inhibition of human MDA-MB-468 cells at 100 uM incubated for 48 hrs by MTT assay relative to control; details: MDA-MB-468, 48 h, read-out: GI

For `COc1ccccc1CN(CCS(=O)(=O)N1CCNCC1)S(=O)(=O)c1ccc(C)cc1`, the inhibition [1] was 24%, the Kd [2] was 14.3 µM and the inhibition of growth at 100 µM (LoVo [3]) was 80%. The inhibition of growth at 100 µM (HCT-116 [4]) was 80%, the IC50 (LoVo [5]) was 43.6 µM and the IC50 (HCT-116 [6]) was 51.8 µM. The IC50 (MDA-MB-231) was > 100 µM, the viability at 100 µM (LoVo [7]) was 19% and the viability at 100 µM (LoVo [8]) was 14.8%. For the same compound, the viability at 100 µM (HCT-116 [9]) was 28.5%, the viability at 100 µM (HCT-116 [10]) was 27.9% and the inhibition (LoVo [11]) was “Active”. For the same compound, the inhibition (HCT-116 [12]) was “Active”, the Activity (LoVo [13]) was 74.6% and the Activity (HCT-116 [14]) was 60.8%. For the same compound, the viability at 25 µM (LoVo [15]) was 75.9%, the Activity (LoVo [16]) was 17.8% and the Activity (LoVo [17]) was 4.29%. It also gave an Activity (LoVo [18]) of 2.04%, a viability at 50 µM (LoVo [19]) of 52.3% and an Activity (LoVo [20]) of 24.6%. For the same compound, the Activity (LoVo [21]) was 21.2%, the Activity (LoVo [22]) was 1.84% and the viability at 75 µM (LoVo [23]) was 38.1%. For the same compound, the Activity (LoVo [24]) was 32.7%, the Activity (LoVo [25]) was 26.5% and the Activity (LoVo [26]) was 2.71%. For the same compound, the “fold change (FC)” value [27] was 6.82, the “fold change (FC)” value [28] was 8.13 and the viability at 25 µM (HCT-116 [29]) was 80.9%. For the same compound, the Activity (HCT-116 [30]) was 11.99%, the Activity (HCT-116 [31]) was 5.2% and the Activity (HCT-116 [32]) was 1.98%. For the same compound, the viability at 50 µM (HCT-116 [33]) was 67.5%, the Activity (HCT-116 [34]) was 16.6% and the Activity (HCT-116 [35]) was 14.6%. It also gave an Activity (HCT-116 [36]) of 1.28%, a viability at 75 µM (HCT-116 [37]) of 49.9% and an Activity (HCT-116 [38]) of 25.8%. The Activity (HCT-116 [39]) was 20.4%, the Activity (HCT-116 [40]) was 3.86% and the Activity (LoVo [41]) was 19.6%. It also gave an Activity (LoVo [42]) of 48%, an Activity (HCT-116 [43]) of 18.7% and an Activity (HCT-116 [44]) of 30.9%. The IC50 (LoVo [45]) was 55.6 µM, the IC50 (LoVo [46]) was 51 µM and the IC50 (HCT-116 [47]) was 81.1 µM. For the same compound, the IC50 (HCT-116 [48]) was 73.9 µM and the inhibition of growth at 100 µM (MDA-MB-468) was 80%.
